Measured values taken from patent US8962608B2, “Cycloalkylnitrile pyrazole carboxamides as janus kinase inhibitors” (Merck Sharp & Dohme Corp., priority 2011, dated 2015).

molecular target: JAK2 (recombinant purified GST-tagged catalytic domain) (Homo sapiens (Human), UniProt O60674); test: biochemical
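Note: biochemical JAK kinase assay with HTRF detection.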

Chain of JAK2 (recombinant purified GST-tagged catalytic domain) (O60674 849-1124): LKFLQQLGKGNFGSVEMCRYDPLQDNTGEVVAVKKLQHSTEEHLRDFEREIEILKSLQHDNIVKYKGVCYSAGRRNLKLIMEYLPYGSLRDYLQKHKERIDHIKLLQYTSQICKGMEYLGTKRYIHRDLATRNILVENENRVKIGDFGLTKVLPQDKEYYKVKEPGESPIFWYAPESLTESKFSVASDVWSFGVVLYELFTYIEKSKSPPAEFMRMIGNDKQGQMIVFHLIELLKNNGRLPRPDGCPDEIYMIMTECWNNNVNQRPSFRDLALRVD

SMILES | IC50
N#C[C@H]1C[C@@H](NCC(F)F)CCC1n1cc(C(N)=O)c(Nc2ccc(S(=O)(=O)C(F)(F)F)cc2)n1 (mixture of isomers) [Example 27-14, 1-{(1S,2S,4S and 1R,2R,4R)-2-cyano-4-[(2,2-difluoroethyl)amino]cyclohexyl}-3-({4-[(trifluoromethyl)sulfonyl]phenyl)amino)-1H-pyrazole-4-carboxamide] | 11 nM
N#C[C@H]1C[C@@H](OC(=O)Nc2ccccc2)CCC1n1cc(C(N)=O)c(Nc2ccc(F)cc2)n1 (mixture of isomers) [Example 34-1, (1S,3S,4S and 1R,3R,4R)-4-{4-Carbamoyl-3-[(4-fluorophenyl)amino]-1H-pyrazol-1-yl}-3-cyanocyclohexyl phenylcarbamate] | 107 nM
N#C[C@H]1C[C@H](OC(=O)Nc2ccccc2)CCC1n1cc(C(N)=O)c(Nc2ccc(F)cc2)n1 (mixture of isomers) [Example 34-3, (1R,3S,4S and 1S,3R,4R)-4-{4-carbamoyl-3-[(4-fluorophonyl)aminol-1H-pyrazol-1-yl}-3-cyanocyclohexyl phenylcarbamate] | 13 nM
N#C[C@H]1CCCC[C@@H]1n1cc(C(N)=O)c(Nc2ccc(C=O)cc2)n1 (single isomer, unassigned) [Example 17-25, 1-[(1S,2S or 1R,2R)-2-cyanocyclohexyl]-3-[(4-formylphenyl)amino]-1H-pyrazole-4-carboxamide] | 3 nM
CC(C)(c1ccc(Nc2nn([C@H]3CCCC[C@@H]3C#N)cc2C(N)=O)cc1F)[C@H](O)C(F)(F)F (single isomer, unassigned) [Example 17-32, 1-[(1S,2S or 1R,2R)-2-cyanocyclohexyl]-3-({3-fluoro-4-[(2S or 2R)-3,3,3-trifluoro-2-hydroxy-1,1-dimethylpropyl]phenyl}amino)-1H-pyrazole-4-carboxamide] | 11 nM
CC(C)(c1ccc(Nc2nn([C@H]3CCCC[C@@H]3C#N)cc2C(N)=O)cc1F)[C@@H](O)C(F)(F)F (single isomer, unassigned) [Example 17-33, 1-[(1S,2S or 1R,2R)-2-cyanocyclohexyl]-3-({3-fluoro-4-[(2R or 2S)-3,3,3-trifluoro-2-hydroxy-1,1-dimethylpropyl]phenyl}amino)-1H-pyrazole-4-carboxamide] | 4 nM
N#C[C@H]1CCCC[C@@H]1n1cc(C(N)=O)c(Nc2cnc3cc(Cl)ccc3c2)n1 (single isomer, unassigned) [Example 17-61, 3-[(7-chloroquinolin-3-yl)amino]-1-[(1S,2S or 1R,2R)-2-cyanocyclohexyl]-1H-pyrazole-4-carboxamide] | 21 nM
N#Cc1cncc(Nc2nn([C@H]3CCCC[C@@H]3C#N)cc2C(N)=O)c1 (single isomer, unassigned) [Example 17-74, 1-[(1R,2R or 1S,2S)-2-cyanocyclohexyl]-3-[(5-cyanopyridin-3-yl)amino]-1H-pyrazole-4-carboxamide] | 49 nM
N#Cc1ccc(Nc2nn([C@H]3CCCC[C@@H]3C#N)cc2C(N)=O)cn1 (single isomer, unassigned) [Example 17-75, 1-[(1R,2R or 1S,2S)-2-cyanocyclohexyl]-3-[(6-cyanopyridin-3-yl)amino]-1H-pyrazole-4-carboxamide] | 22 nM
Cc1cc(Nc2nn([C@H]3CCCC[C@@H]3C#N)cc2C(N)=O)cnc1C#N (single isomer, unassigned) [Example 17-77, 1-[(1R,2R or 1S,2S)-2-cyanocyclohexyl]-3-[(6-cyano-5-methylpyridin-3-yl)amino]-1H-pyrazole-4-carboxamide] | 18 nM
N#C[C@H]1CCCC[C@@H]1n1cc(C(N)=O)c(Nc2ccc(S(=O)(=O)Nc3ccc4cccnc4c3)cc2)n1 (single isomer, unassigned) [Example 17-94, 1-[(1R,2R or 1S,2S)-2-cyanocyclohexyl]-3-{[4-(quinolin-7-ylsulfamoyl)phenyl]amino}-1H-pyrazole-4-carboxamide] | 33 nM
N#C[C@H]1CCCC[C@@H]1n1cc(C(N)=O)c(Nc2ccc(S(=O)(=O)N3CCOCC3)cc2)n1 (single isomer, unassigned) [Example 17-99, 1-[(1R,2R or 1S,2S)-2-cyanocyclohexyl]-3-{[4-(morpholin-4-ylsulfonyl)phenyl]amino}-1H-pyrazole-4-carboxamide] | 1 nM
N#C[C@H]1C[C@H](O)CC[C@@H]1n1cc(C(N)=O)c(Nc2ccc(Cl)nc2)n1 (single isomer, unassigned) [Example 25-12, 3-[(6-chloropyridin-3-yl)amino]-1-[(1S,2S,4R or 1R,2R,4S)-2-cyano-4-hydroxycyclohexyl]-1H-pyrazole-4-carboxamide] | 20 nM
N#C[C@H]1C[C@H](O)CC[C@@H]1n1cc(C(N)=O)c(Nc2ccc(C3CC3)cc2)n1 (single isomer, unassigned) [Example 25-14, 1-[(1S,2S,4R or 1R,2R,4S)-2-cyano-4-hydroxycyclohexyl]-3-[(4-cyclopropylphenyl)amino]-1H-pyrazole-4-carboxamide] | 25 nM
N#C[C@H]1C[C@H](O)CC[C@@H]1n1cc(C(N)=O)c(Nc2ccc(C(F)(F)F)c(F)c2)n1 (single isomer, unassigned) [Example 25-23, 1-[(1S,2S,4R or 1R,2R,4S)-2-cyano-4-hydroxycyclohexyl]-3-{[3-fluoro-4-(trifluoromethyl)phenyl]amino}-1H-pyrazole-4-carboxamide] | 28 nM
N#C[C@H]1C[C@H](OCC2CC2)CC[C@@H]1n1cc(C(N)=O)c(Nc2ccc([C@@H](O)C(F)(F)F)cc2)n1 (single isomer, unassigned) [Example 26-5, 1-[(1S,2S,4R or 1R,2R,4S)-2-cyano-4-(cyclopropylmethoxy)cyclohexyl]-3-({4-[(1R or 1S)-2,2,2-trifluoro-1-hydroxyethyl]phenyl}amino)-1H-pyrazole-4-carboxamide] | 14 nM
N#C[C@@H]1C[C@H](OCC2CC2)CC[C@H]1n1cc(C(N)=O)c(Nc2ccc([C@H](O)C(F)(F)F)cc2)n1 (single isomer, unassigned) [Example 26-6, 1-[(1R,2R,4R or 1S,2S,4S)-2-cyano-4-(cyclopropylmethoxy)cyclohexyl]-3-({4-[(1S or 1R)-2,2,2-trifluoro-1-hydroxyethyl]phenyl}amino)-1H-pyrazole-4-carboxamide] | 32 nM
N#C[C@H]1C[C@H](OCC2CC2)CC[C@@H]1n1cc(C(N)=O)c(Nc2ccc([C@H](O)C(F)(F)F)cc2)n1 (single isomer, unassigned) [Example 26-7, 1-[(1S,2S,4R or 1R,2R,4S)-2-cyano-4-(cyclopropylmethoxy)cyclohexyl]-3-({4-[(1S or 1R)-2,2,2-trifluoro-1-hydroxyethyl]phenyl]amino)-1H-pyrazole-4-carboxamide] | 9 nM
N#C[C@@H]1C[C@H](OCC2CC2)CC[C@H]1n1cc(C(N)=O)c(Nc2ccc([C@@H](O)C(F)(F)F)cc2)n1 (single isomer, unassigned) [Example 26-8, 1-[(1R,2R,4R or 1S,2S,4S)-2-cyano-4-(cyclopropylmethoxy)cyclohexyl]-3-({4-[(1R or 1S)-2,2,2-trifluoro-1-hydroxyethyl]phenyl}amino)-1H-pyrazole-4-carboxamide] | 19 nM
N#C[C@H]1C[C@@H](OCC2CC2)CC[C@@H]1n1cc(C(N)=O)c(Nc2ccc(F)cc2)n1 (single isomer, unassigned) [Example 26-9, 1-[(1S,2S,4S or 1R,2R,4R)-2-cyano-4-(cyclopropylmethoxy)cyclohexyl]-3-[(4-fluorophenyl)amino]-1H-pyrazole-4-carboxamide] | 33 nM
N#C[C@@H]1C[C@@H](OCC2CC2)CC[C@H]1n1cc(C(N)=O)c(Nc2ccc(F)cc2)n1 (single isomer, unassigned) [Example 26-10, 1-[(1R,2R,4S or 1S,2S,4R)-2-cyano-4-(cyclopropylmethoxy)cyclohexyl]-3-[(4-fluorophenyl)amino]-1H-pyrazole-4-carboxamide] | 102 nM
N#C[C@H]1C[C@@H](OCC2CC2)CC[C@H]1n1cc(C(N)=O)c(Nc2ccc(F)cc2)n1 (single isomer, unassigned) [Example 26-11, 1-[(1R,2S,4S or 1S,2R,4R)-2-cyano-4-(cyclopropylmethoxy)cyclohexyl]-3-[(4-fluorophenyl)amino]-1H-pyrazole-4-carboxamide] | > 1500 nM
C[C@H](N[C@H]1CC[C@H](n2cc(C(N)=O)c(Nc3ccc(C(F)(F)F)nc3)n2)[C@@H](C#N)C1)C1CC1 (single isomer, unassigned) [Example 28-8, 1-[(1S,2S,4S or 1R,2R,4R)-2-cyano-4-{[(1S)-1-cyclopropylethyl]amino}cyclo-hexyl]-3-{[6-(trifluoromethyl)pyridin-3-yl]amino}-1H-pyrazole-4-carboxamide] | 200 nM
CC1(CN[C@@H]2CC[C@H](n3cc(C(N)=O)c(Nc4ccc(C(F)(F)F)cc4)n3)[C@@H](C#N)C2)COC1 (single isomer, unassigned) [Example 28-16, 1-[(1S,2S,4R or 1R,2R,4S)-2-cyano-4-{[(3-methyloxetan-3-yl)methyl]amino}cyclohexyl]-3-{[4-(trifluoromethyl)phenyl]amino}-1H-pyrazole-4-carboxamide] | 21 nM
CN(C)[C@@H]1CC[C@@H](n2cc(C(N)=O)c(Nc3ccc(C(F)(F)F)nc3)n2)[C@H](C#N)C1 (single isomer, unassigned) [Example 28-18, 1-[(1R,2R,4R or 1S,2S,4S)-2-cyano-4-(dimethylamino)cyclohexyl]-3-{[6-(trifluoromethyl)pyridin-3-yl]amino}-1H-pyrazole-4-carboxamide] | 400 nM
C[C@H](N[C@@H]1CC[C@H](n2cc(C(N)=O)c(Nc3ccc(C(F)(F)F)nc3)n2)[C@@H](C#N)C1)C1CC1 (single isomer, unassigned) [Example 28-19, 1-[(1S,2S,4R or 1R,2R,4S)-2-cyano-4-{[(1S)-1-cyclopropylethyl]amino}cyclo-hexyl]-3-{[6-(trifluoromethyl)pyridin-3-yl]amino}-1H-pyrazole-4-carboxamide] | 675 nM
CN(C)[C@H]1CC[C@H](n2cc(C(N)=O)c(Nc3ccc(C(F)(F)F)nc3)n2)[C@@H](C#N)C1 (single isomer, unassigned) [Example 28-22, 1-[(1S,2S,4S or 1R,2R,4R)-2-cyano-4-(dimethylamino)cyclohexyl]-3-{[6-(trifluoromethyl)pyridin-3-yl]amino}-1H-pyrazole-4-carboxamide] | 145 nM
